Assay results from US20140094387A1, “SUV39H2 AS A TARGET GENE FOR CANCER THERAPY AND DIAGNOSIS” (ONCOTHERAPY SCIENCE, INC., priority 2011, published 2014).

Tested on: SUV39H2
Experiment: Quantitative real-time PCR of SUV39H2 expression after siRNA transfection
Format: cell-based, human
Conditions: A549 and SW780 cells; siRNA 100 nM; normalized by GAPDH, relative to siEGFP (siEGFP=1); vs control siRNAs siEGFP and siNC

Row | Substance | SUV39H2 mRNA expression level
1 | siSUV39H2#1: siRNA duplex targeting human SUV39H2; target 5' CUUUGGUUGUUCAUGCACA 3' (SEQ ID NO: 19); sense SEQ ID NO: 15, antisense SEQ ID NO: 16 (sense CUUUGGUUGUUCAUGCACATT; antisense UGUGCAUGAACAACCAAAGTT; chemistry not given here) | suppression of endogenous SUV39H2 expression
2 | siSUV39H2#2: siRNA duplex targeting human SUV39H2; target 5' CUGGAAUCAGCUUAGUCAA 3' (SEQ ID NO: 20); sense SEQ ID NO: 17, antisense SEQ ID NO: 18 (sense CUGGAAUCAGCUUAGUCAATT; antisense UUGACUAAGCUGAUUCCAGTT; chemistry not given here) | suppression of endogenous SUV39H2 expression
